Laboratory results: patent publication EP0280603A1, “Absolute S confirmation enantiomers of amide derivatives of 3-aminoquinuclidine, process for their preparation and their therapeutical use” (DELALANDE S.A., priority 1987, dated 1988)

Assays:
[1] = Side effects and toxicity at the active doses (no method described); assay type: in vivo; conditions: in words, compared with the dextrorotatory enantiomer
[2] = tested on: vomissements induits par le cisplatine; test: Oral antiemetic activity against cisplatin-induced vomiting in the dog; assay type: in vivo, chien; conditions: for VOMISSEMENTS % DE DIMINUTION EN NOMBRE / VOMISSEMENTS % DE DIMINUTION EN TOUT OU RIEN / VOMISSEMENTS NOMBRE MOYEN: 6 h observation, 4 dogs; for VOMISSEMENTS NOMBRE MOYEN: control 10,8
From the text: A titre d'exemple, on étudie ci-après l'activité antiémétique par voie orale du chlorhydrate du N-(quinuclidinyl-3) amino-4 chloro-5 méthoxy-2 benzamide, sous la forme du mélange racémique (code MD 780209), de l'énantiomère lévogyre de configuration S (code MD 200054) et de l'énantiomère dextrogyre de configuration R (code MD 200051), vis-à-vis des vomissements induits par le cisplatine chez le chien.
La méthode est dérivée de celle décrite par J.A. GYLYS et coll. (Res. Commun. Chem. Pathol. Pharmacol. 1979, 23, n° 1, p. 61-68). Les vomissements sont induits par injection intraveineuse de cisplatine (DCI) à la dose de 3 mg/kg chez des chiens tout-venants, mâle ou femelle, de poids compris entre 10 et 16 kg, à la diète hydrique depuis 24 heures.
Les composés à tester sont administrés par voie orale 60 minutes après l'injection de cisplatine.
Les animaux sont alimentés 1 h 30 après le traitement. La durée d'observation est de 6 heures après l'injection de cisplatine.

[3] = dog, 7,5 μ g/kg oral 60 min after cisplatin 3 mg/kg i.v.
[4] = dog, 15 μ g/kg oral 60 min after cisplatin 3 mg/kg i.v.
[5] = dog, 30 μ g/kg oral 60 min after cisplatin 3 mg/kg i.v.

COc1cc(N)c(Cl)cc1C(=O)N[C@@H]1CN2CCC1CC2 [MD 200054, N-(quinuclidinyl-3) amino-4 chloro-5 méthoxy-2 benzamide]
effets secondaires [1]: moins d'effets secondaires | VOMISSEMENTS % DE DIMINUTION EN NOMBRE [2, 3]: 95,3% | VOMISSEMENTS % DE DIMINUTION EN TOUT OU RIEN [2, 3]: 75% | VOMISSEMENTS NOMBRE MOYEN [2, 3]: 0,5 | inhiber les vomissements induits par des drogues anticancéreuses telles que le cisplatine ([2]; in words, compared with the antipode MD 200051 and the corresponding racemate): beaucoup plus actif

COc1cc(N)c(Cl)cc1C(=O)NC1CN2CCC1CC2 (racemic) [MD 780209, N-(quinuclidinyl-3) amino-4 chloro-5 méthoxy-2 benzamide, reference compound]
VOMISSEMENTS % DE DIMINUTION EN NOMBRE [2, 4]: 81,4% | VOMISSEMENTS % DE DIMINUTION EN TOUT OU RIEN [2, 4]: 25% | VOMISSEMENTS NOMBRE MOYEN [2, 4]: 2

COc1cc(N)c(Cl)cc1C(=O)N[C@H]1CN2CCC1CC2 [MD 200051, N-(quinuclidinyl-3) amino-4 chloro-5 méthoxy-2 benzamide]
VOMISSEMENTS % DE DIMINUTION EN NOMBRE [2, 5]: 34,9% | VOMISSEMENTS % DE DIMINUTION EN TOUT OU RIEN [2, 5]: 0% | VOMISSEMENTS NOMBRE MOYEN [2, 5]: 7
